# Measurements taken from paper PMC4473678, “Swedish mutant APP-based BACE1 binding site peptide reduces APP β-cleavage and cerebral Aβ levels in Alzheimer’s mice” (Scientific Reports, 2015).
# Entries after “also recorded” stand apart in the source; their conditions may differ.
# What was measured:
# [1] = system: 5XFAD mice; assay: WB of APP processing products in brain homogenates, 5XFAD mice; format: in vivo, mouse; conditions: 8 weeks
# Description: (§1) Transgenic AD mice [5XFAD; B6SJL-Tg(APPSwFlLon,PSEN1*M146L*L286V) 6799Vas/Mmjax] at 2.5 months of age were obtained from the Jackson Laboratory (Bar Harbor, ME) and housed and maintained in the Animal Facility of College of Medicine at University of South Florida (USF). The mice at 3.5 months of age were treated with TAT-APPsweBBP, TAT peptide (100 nmol/kg in 100 μL PBS) or PBS (100 μL) daily by intraperitioneal injection (i.p.) for eight consecutive weeks. The mice were subjected to behavioral testing after 8-week treatment and then euthanized for immunohistochemical, WB and ELISA analyses. Animals were housed and maintained at USF and all experiments were in compliance with protocols approved by USF Institutional Animal Care and Use Committee. All methods were performed in accordance with relevant guidelines and regulations.
# WB analysis was performed as previously described. Briefly, the proteins from the various cell-free suspensions, cell lysates and brain homogenates were electrophoretically separated using 10% bicine/tris gel (8 M urea) for proteins less than 5 kD or 10% tricine/tris gels for larger proteins. Electrophoresed proteins were transferred to polyvinylidene difluoride membranes (Bio-Rad, Richmond, CA), washed and blocked for 2 h at room temperature in Tris-buffered saline containing 5% (w/v) nonfat dry milk (TBS/NFDM). After blocking, membranes were hybridized for 2 h with various primary antibodies, washed and incubated for 1 h with the appropriate HRP-conjugated secondary antibody in TBS/NFDM. Blots were developed using the luminol reagent (Thermo Fisher Scientific, Waltham, MA).
# [2] = system: 5XFAD mice; assay: Radial arm water maze (RAWM), 5XFAD mice; format: in vivo, mouse; conditions: 100 nmol/kg i.p. daily, 8 weeks, n = 10 per treatment, 5 female/5 male, listed as TAT-APPsweBBP
# Description: as §1
# Spatial learning and memory performance was tested for each mouse using the Two-day Radial Arm Water Maze (RAWM) test[49]. The RAWM was carried out in a 100-cm circular pool with six swim alleys radiating from a common circular swim area. An escape platform was placed near the end of one arm, which forces mice to use working memory to perform this task. On day 1, mice are trained for 15 trials (5 blocks, 3 trials per block), with trials alternating between visible and hidden platform. […] Cognitive ability was assessed as the number of entry-arm errors.
# [3] = system: WT mice; assay: Rotarod test, WT mice; format: in vivo, mouse; conditions: 100 nmol/kg i.p. daily, 8 weeks, n = 10 per treatment
# [4] = system: cortex and hippocampus of 5XFAD mice; assay: Extracellular and intracellular peptide levels in brain (WB); format: in vivo, mouse; conditions: i.p., *P < 0.05, **P < 0.01, listed as TAT-APPsweBBP
# Description: For specific extraction of extracellular versus intracellular proteins, hemibrains were harvested and placed in 500 μl of solution containing 50 mM Tris-HCl, pH 7.6, 0.01% NP-40, 150 mM NaCl, 2 mM EDTA, 0.1% SDS, 1 mM phenylmethylsulfonyl fluoride, and protease inhibitor cocktail (Sigma) as previously describe. Soluble, extracellular proteins were collected from mechanically homogenized lysates after centrifugation for 5 min at 3000 rpm. Cytoplasmic proteins were extracted from cell pellets mechanically dissociated with a micropipettor in 500 μl of TNT buffer (50 mM Tris-HCl, pH 7.6, 150 mM NaCl, and 0.1% Triton X-100) after centrifugation for 90 min at 13,000 rpm. Insoluble material was incubated with 20 μl of 70% formic acid, mechanically dissociated with a micropipette, gently agitated for 1 h, and buffered with 380 μl of 1 M Tris-HCl, pH 8.0. Samples were centrifuged for 90 min at 13,000 rpm, and supernatants were collected for analysis.
# WB analysis was performed as previously described. Briefly, the proteins from the various cell-free suspensions, cell lysates and brain homogenates were electrophoretically separated using 10% bicine/tris gel (8 M urea) for proteins less than 5 kD or 10% tricine/tris gels for larger proteins. […]
# [5] = system: WT mice; assay: Radial arm water maze (RAWM), WT mice; format: in vivo, mouse; conditions: 100 nmol/kg i.p. daily, 8 weeks, n = 10 per treatment, listed as TAT-APPsweBBP
# [6] = system: 5XFAD mice; assay: Rotarod test, 5XFAD mice; format: in vivo, mouse; conditions: 100 nmol/kg i.p. daily, 8 weeks, n = 10 per treatment, listed as TAT-APPsweBBP
# Description: as §1
# The rotarod task was also performed to exclude the possibility that positive effects of any treatment in RAWM test are due to improvements in sensorimotor ability. Mice were positioned on the rod (diameter 3.6 cm) of the equipment (Rotarod 7650 accelerating model; Ugo Basile, Biological Research Apparatus, Varese, Italy), which was initially set at 1.0 rpm. The rod was then allowed to steadily accelerate up to 40.0 rpm over a 3-min session and evaluation was made by monitoring latency to fall.
# [7] = system: recombinant BACE1; assay: BACE1 activity (FRET) assay, cell-free; format: biochemical
# Description: The BACE1 inhibiting activity of APP-based BACE1 site binding peptides were determined using a fluorescence resonance energy transfer (FRET) assay (Pan Vera Co., Madison, WI), which employs a recombinant baculovirus-expressed BACE1 and a specific substrate (Rh-[…]-quencher) that is based on the APPswe mutation. This specific peptide substrate becomes highly fluorescent upon enzymatic cleavage. […] Then, 10 μL of BACE1 stop buffer (2.5 M sodium acetate) was added to the mixture. Fluorescence was read using a fluorometer, with excitation at 545 nm and emission at 585 nm.
# [8] = system: recombinant BACE1 protein; assay: WB of BACE1-mediated cleavage of biotin-labeled peptide, cell-free; format: biochemical; conditions: 10 μg biotin-labeled TAT-APPsweBBP with 10 μL recombinant BACE1 (1.0 U/mL), 4 h, 37 °C
# Description: In order to confirm that APPsweBBP containing the β-cleavage site could bind to and be consequently proteolyzed by BACE1, 10 μg of biotin-labeled TAT-APPsweBBP was incubated with or without 10 μL of recombinant BACE1 protein (1.0 U/mL) in BACE1 reaction buffer for 4 h at 37 °C and then subjected to WB analysis as described previously. In addition, we performed immunoprecipitation (IP) and WB analyses of this mixture with anti-BACE1 and anti-biotin antibodies to confirm that TAT-APPsweBBP, but not TAT, specifically binds to BACE1.
# [9] = WB 6E10, listed as TAT-APPsweBBP
sequence,measurement,setting,value
YGRKKRRQRRREISEVNLDAEFR [APPsweBBP conjugated with the membrane fusion fragment of HIV-1 Tat protein],total cerebral soluble Aβ (Aβs) by WB,[1]; [9],much lower levels; also recorded: reduced total cerebral soluble Aβ
same,β-CTF by WB,[1]; [9],much lower levels; also recorded: reduced
same,band density ratio of β-CTF to holo-APP,"[1]; densitometry, versus TAT and PBS, **P < 0.01","significantly reduces the band density ratios of β-CTF to holo-APP, compared to TAT- and PBS-treatments (**P < 0.01)"
same,total APP expression by WB,[1]; listed as TAT-APPsweBBP,without notable alteration on total APP expression; also recorded: without significantly altering total APP expression
same,RAWM entry-arm errors (learning and memory),[2],"significantly fewer errors, compared to TAT- and PBS-treated mice; also recorded: enhanced cognitive ability, as evidenced by fewer errors"
same,rotarod latency to fall,[3],no differences between treatment groups on each day
same,intracellular versus extracellular distribution in brain,[4],higher intracellular TAT-APPsweBBP distribution; also recorded: prefers to enter into cytoplasm of brain cells
same,RAWM entry-arm errors,[5],no difference among the various treatment groups; also recorded: no significant difference between WT treatment groups
same,rotarod latency to fall / motor performance,[6],"no differences between treatment groups on each day; also recorded: tended to enhance motor activity in 5XFAD mice, as shown by increased latency to fall, but this did not reach a statistical level of significance"
same,BACE1 inhibition (result in words),"[7]; FRET assay, APPsweBBP or TAT-APPsweBBP at 0.05, 0.5, 5 and 20 μM (Fig. 1)",competitively inhibits BACE1 activity; also recorded: much higher inhibiting activity than its prototype peptide
same,inhibition,"[7]; FRET assay, peptide final concentration 20 μM, 90 min, room temperature, read-out: percentage inhibition of BACE1",93.2 ± 2.73%
same,% of Inhibition of BACE1,"[7]; peptide final concentration 20 μM, FRET substrate Rh-EVNLDAEFK-quencher, 90 min, room temperature, dark, ex 545/em 585 nm, mean ± SD",93.23 ± 2.73%
same,cleavage by BACE1,[8],is cleaved by BACE1; also recorded: can also be cleaved
